The source of these data is US5733754A, “Enzyme and its use in preparing (S)-pipecolic acid” (Chiroscience Limited, priority 1993, dated 1998).

The test system of experiment [1] is N-acetyl-pipecolic acid acylase activity. Nature of the experiment: Use of inducer: flask cultures with additive, acylase activity of the cell extract. Type of experiment: cell-based, Alcaligenes denitrificans. The conditions noted are these: for Volumetric Activity / Specific (activity): additive in growth medium (5 g/l), extract used in 24 hour biotransformation of 20 g/l N-acetyl-(R,S)-pipecolic acid, 1U = release of 1 μmole pipecolic acid per minute. The protocol: It has been observed by other workers that an inducer must be added to the fermentation medium to obtain N-acyl-amino-acid acylase activity. This adds to the cost of producing the enzyme. Flask cultures were set up to determine the requirement for an inducer. Medium used was similar to that described in Table 1, except that the N-acetyl-L-phenylalanine was omitted, 1 g/l yeast extract was added and the following 4 variations were set up.
The final pH of all flasks was adjusted to pH 7.0 and a total of 50 ml added to 500 ml conical flasks. Following inoculation, the flasks were incubated at 25° C. with shaking for 19 hours. The cells were then collected by centrifugation, resuspended in 10 mM phosphate buffer, pH 7 and lysed by sonication. The released enzyme extract was then used in a 24 hour biotransformation of 20 g/l N-acetyl-(R,S)-pipecolic acid.
1U = release of 1 μmole pipecolic acid per minute

The test system of experiment [2] is N-acyl-pipecolic acid acylase. Nature of the experiment: Alternative substrates: activity of semi-purified enzyme preparation on N-acetylamino-acids. Format: biochemical, Alcaligenes denitrificans. The conditions noted are these: 1 ml substrate 40 g/l + 0.5 ml enzyme + 0.5 ml 100 mM Tris buffer pH 7.5; 24-25° C., 1 hour. The protocol: The sonicate supernatants were then used in the following biotransformation reactions. To 1 ml of the sonicate supernatants, 1 ml of 40 g/l solution of N-acetyl-rac-pipecolate, pH 7, was added in the presence of 0.02% sodium azide. The biotransformation reaction mixtures were incubated with shaking for 48 h at 25° C., after which samples were removed and analysed by HPLC. HPLC analysis was done using a 15 cm Hichrom S50DS2 column with an isocratic mobile phase of 30% methanol:70% 10 mM potassium phosphate buffer, pH 3, at a flow rate of 1 ml/min. The injection volume was 20 μl and the detection was at 240 nm, total run time was 10 minutes. Prior to loading on to the column, the sample was diluted 20-fold in the HPLC mobile phase and centrifuged. The analyses as shown by this procedure provided values of residual substrate concentrations. A substrate control was run in parallel with the sample reactions.
(§1) The activity of a semi-purified enzyme preparation, as described in Example 4, was tested on a range of alternative substrates. Various N-acetylamino-acid solutions were prepared at a concentration of 40 g/l in 100 mM Tris buffer at pH 7.5. Reactions were then set up using 1 ml of reaction substrate plus 0.5 ml enzyme plus 0.5 ml 100 mM Tris buffer, pH 7.5. The reaction mixtures were shaken at 24°-25° C. for 1 hour before being analysed for amino-acid formation. The extent of reaction for the N-acetylpipecolic acid and N-acetylproline biotransformations was determined using the HPLC methodology described in Example 1. The extent and enantioselectivity of the other biotransformations was determined using a Nucleosil Chiral-1 (ET250/8/4 with a buffer phase of 1 mM copper acetate at pH 5 in 5% methanol, and a flow rate of 0.8 ml/min, with detection at 254 nm. Samples were diluted 100-fold and areas compared to relevant standards.

In experiment [3] the test system is N-acylamino-acid acylase of EP-A-0416282. The conditions noted are these: cited from earlier work.
The test system of experiment [4] is N-acyl-pipecolic acid acylase (amino acylase). Briefly: Alternative buffers: effect of high phosphate on the biotransformation. Type of experiment: biochemical, Alcaligenes denitrificans. The conditions noted are these: for Amino-acid formed: pH 7.5. The protocol: as §1
The acylase disclosed in EP-A-0416282 is inhibited by reaction in buffers containing phosphate at high concentrations. The effect of high phosphate on the biotransformation was determined using a similar methodology to that described in Example 6.

For the molecule `O=C[C@H](O)[C@@H](O)[C@H](O)[C@H](O)CO` [Glucose], the “N-acetyl-pipecolic acid acylase activity of the flask” value in experiment [1] (additive 5 g/l in growth medium) is “no N-acetyl-pipecolic acid acylase activity”. For the same molecule, the “Volumetric Activity” value in experiment [1] turned out to be 0.00 U/ml.

Consider `CC(=O)NC(C)C(=O)O` (racemic) [N-acetyl-(R,S)-alanine], for which the Amino-acid formed in experiment [2] amounted to 3.4 g/L. Also, in experiment [3] (enzyme of EP-A-0416282), the “activity of the enzyme against substrate” value was “non-detectable”.

In the case of `CC(=O)NCCCC[C@H](N)C(=O)O` [εN-acetyl-(S)-lysine], the Amino-acid formed in experiment [2] was determined as 0.0 g/L.

For the molecule `CC(=O)NC(Cc1ccc(C#N)cc1)C(=O)O` (racemic) [N-acetyl-(R,S)-4-cyanophenylalanine], the Amino-acid formed in experiment [2] was 8.3 g/L.

As for N-acyl-pipecolic acid, the “activity of the enzyme relative to its activity on N-acetyl-proline” value in experiment [3] (enzyme of EP-A-0416282) was “less than 5%”.

In the case of `CC(=O)N1CCC[C@H]1C(=O)O` [N-acetyl-(S)-proline], the “Specific (activity)” value in experiment [1] was 0.033 U/mg protein. Also, the “Volumetric Activity” value in experiment [1] is given as 0.042 U/ml. Also, the Amino-acid formed in experiment [2], in experiment [4] (100 mM Phosphate) and in experiment [4] (100 mM Tris) was 3.2 g/L in each case.

For `CC(=O)N1CCCCC1C(=O)O` (racemic) [N-acetyl-(R,S)-pipecolic acid], in experiment [1], the “Specific (activity)” value was found to be 0.086 U/mg protein. The “Volumetric Activity” value in experiment [1] is 0.017 U/ml. Besides, the Amino-acid formed in experiment [2], in experiment [4] (100 mM Phosphate) and in experiment [4] (100 mM Tris) was 6.3 g/L throughout.

Take phosphate: the “inhibitory effect on the amino acylase” value in experiment [4] (final phosphate concentration equal to or greater than 75 mM) was “no significant inhibitory effect”. In addition, the “inhibition of the acylase by buffer” value in experiment [3] (buffers containing phosphate at high concentrations) was “inhibited”.

On to `CC(=O)NC(Cc1ccccc1)C(=O)O` (racemic) [N-acetyl-(R,S)-phenylalanine], for which the Amino-acid formed in experiment [2] worked out at 5.3 g/L. In experiment [3] (enzyme of EP-A-0416282), the “activity of the enzyme against substrate” value is reported as “non-detectable”.

Turning to `CC(=O)NC(CCC(=O)O)C(=O)O` (racemic) [N-acetyl-(R,S)-glutamic acid], the Amino-acid formed in experiment [2] is 0.2 g/L.
